{"source": "patent US12054485B2", "about": "“Substituted imidazoquinolines” (BIONTECH SE, priority 2017, dated 2024)", "key": {"[1]": {"tested_on": "Human PBMCs", "experiment": "IFN-α induction by TLR agonists in human PBMCs (Luminex)", "format": "cell-based", "details": "24 h incubation, maximum of bell-shaped curve over 0.0003-1 μM, Table 1", "method": "1) IFN-α Induction Assay—IFN-α induction by TLR Agonists in Human PBMCs\nAbbreviations: BSA=bovine serum albumine; PBS=phosphate buffer pH 7.4; PE=phycoerythrin; EDC=1-ethyl-3-(3-dimethylaminopropyl)carbodiimide hydrochloride.\nMaterials and Devices: Bio Plex 200 Luminex device, and BioPlex Manager software; MultiScreen Filter Plates (Millipore, MABVN1250); low binding reaction vials 1.5 ml (Sarstedt, 72.706.600); Activation Buffer: 0.1M Na-dihydrogen phosphate, 0.1M Di-Na hydrogen phosphate pH 6.2; Sulfo-NHS (N-hydroxysulfosuccinimide) solution: 50 mg/ml in water (freshly prepared); EDC solution: 50 mg/ml in water (freshly prepared); Coupling Buffer: PBS; Washing Buffer: PBS+0.05% Tween20; Blocking Buffer: PBS+10 mg/ml BSA+0.05% sodium azide; Assay Buffer: PBS+10 mg/ml BSA;\nOther materials and devices (pipets, reaction vessels, shaker, etc.) were standard lab equipment; water was MilliQ grade quality, buffers were sterile filtered before use.\n(Pre-)Incubation of Cells:\nIn each well of a 96-well U-bottom plate 200,000 PBMCs were pre-incubated in medium (RPMI1640-Gibco #61870-044+10% FBS+1% L-glutamine) for 5 hours at 37° C. and 5% CO2 before the compounds of the present invention or controls were added, respectively. Upon addition of compounds of the present invention or controls, the cells are incubated for another 24 h at 37° C. and 5% CO2.\nLuminex assay, Step 1: Coupling of antibody to beads: • transfer a suspension (beads are stored in buffer as provided by manufacturer) of about 5 million MicroPlex Microspheres (=beads) into a low binding reaction vial • centrifuge bead suspension for 1 min at 10,000 g, discard supernatant and resuspend pellet in 160 μl Activation Buffer, repeat once • add 20 μl Sulfo-NHS solution and 20 μl EDC solution, vortex • incubate for 20 min in the absence of light • centrifuge bead suspension for 1 min at 10,000 g, discard supernatant and resuspend pellet in 500 μl Coupling Buffer, repeat once • add capture antibody (CaptureAK eBioscience #BMS160, 5 μg per 1 Mio beads) • incubate 2 h at RT in the absence of light while swaying • centrifuge bead suspension for 1 min at 10,000 g, discard supernatant and resuspend pellet in 500 μl Washing Buffer, repeat once • centrifuge bead suspension for 1 min at I0,000 g, discard supernatant and resuspend pellet in 100 μl Blocking Buffer\nLuminex assay, Step 2: Measurement • add 100 μlAssay Buffer into each filter plate well (seal any unused wells with adhesive tape), then remove buffer • add about 2,000 beads per well per analyte (per analyte, a different bead type with distinct fluorescence color is used), suspended in […] of Assay Buffer • remove buffer and wash twice with 100 μl Washing Buffer per well • per well, add 50 μl sample solution from the (pre-)incubation step (cell supernatant), or Standard (IFN-α standard eBioscience #BMS216MST—concentration gradient, highest standard concentration 2500 pg/ml) or Assay Buffer (as blanks) • shake plate • incubate plate for 2 h at RT in the absence of light, while swaying the plate • wash three times with 100 μl Washing Buffer per well • add 25 μl antibody detection mix (DetectionAK eBioscience #BMS1016BT diluted 1:1000) in Assay Buffer per well, then vortex plate • incubate plate for 1 h at RT in the absence of light, while swaying the plate • wash three times with 100 μl Washing Buffer per well • add 50 μl Streptavidin/PE (diluted 1:200 in Assay Buffer) per well, then vortex plate • incubate plate for 10 min at RT in the absence of light, while swaying the plate • wash three times with 100 μl Washing Buffer per well • add 100 μl Assay Buffer per well, then vortex plate • start Luminex measurement according to manufacturer's instructions, measuring at least 50 beads per well per analyte\nThe compounds were tested at 8 different concentrations (1 μM, 0.3 μM, 0.1 μM, 0.03 μM, 0.01 μM 0.003 μM, 0.001 μM, 0.0003 μM) using a half-logarithmic dilution. […]"}, "[2]": {"tested_on": "cynomolgus monkeys", "experiment": "In vivo IFN-α secretion in cynomolgus monkeys (plasma IFN-α ELISA)", "details": "cynomolgus monkey, single i.v. 30 min infusion, 0.1 mg/kg", "method": "In the following studies, compounds according to the invention were examined in an in vivo cynomolgus monkey model. It is evaluated whether and at which applied dose the compounds cause secretion of IFN-α.\nIn particular, a defined single dose of test compound was applied intravenously to cynomolgus monkeys by a thirty minute infusion. At several time points after initiation of the intravenous compound application, blood samples (0.5 mL for approximately 0.25 mL plasma) were collected from the vena cephalica antebrachii or vena saphena into K3EDTA tubes from the animals. Blood samples were stored on crushed ice prior to centrifugation. Plasma was obtained by centrifugation at 4° C. and approximately 1800 g for 10 minutes and was aliquoted into labeled micro tubes and stored frozen at −70° C. or below. Plasma samples were thawed, diluted and used for determination of IFN-α levels using an IFN-α Elisa Kit (e.g. VeriKine™ Cynomolgus/Rhesus IFN-α ELISA Kit) according to the manufacturer's instructions."}}}
{"smiles": "CCc1nc2c(N)nc3ccccc3c2n1CCCCN(C(C)=O)C1CCOCC1", "note": "[Example 1, N-(4-(4-Amino-2-ethyl-1H-imidazo[4,5-c]quinolin-1-yl)butyl)-N-(tetrahydro-2H-pyran-4-yl)acetamide]", "values": [{"measurement": "Maximum IFN-α release", "setting": "[1]", "value": 1750, "unit": "pg/mL"}, {"measurement": "IFN-α secretion (plasma)", "setting": "[2]", "value": "up to 15,000 pg/ml"}]}
